Experiments:
[1] = target: cloned human δ opioid receptor (Homo sapiens, UniProt P41143); assay: biochemical
[2] = target: cloned human κ opioid receptor (Homo sapiens, UniProt P41145); assay: biochemical; type: biochemical; conditions: for times less potent than JDTic as a κ opioid receptor antagonist: ratio of κ Ke values vs JDTic
[3] = target: cloned human μ opioid receptor (Homo sapiens, UniProt P35372); type: biochemical; conditions: ratio of μ Ke values vs 3b
Chain of cloned human μ opioid receptor (P35372 whole entry): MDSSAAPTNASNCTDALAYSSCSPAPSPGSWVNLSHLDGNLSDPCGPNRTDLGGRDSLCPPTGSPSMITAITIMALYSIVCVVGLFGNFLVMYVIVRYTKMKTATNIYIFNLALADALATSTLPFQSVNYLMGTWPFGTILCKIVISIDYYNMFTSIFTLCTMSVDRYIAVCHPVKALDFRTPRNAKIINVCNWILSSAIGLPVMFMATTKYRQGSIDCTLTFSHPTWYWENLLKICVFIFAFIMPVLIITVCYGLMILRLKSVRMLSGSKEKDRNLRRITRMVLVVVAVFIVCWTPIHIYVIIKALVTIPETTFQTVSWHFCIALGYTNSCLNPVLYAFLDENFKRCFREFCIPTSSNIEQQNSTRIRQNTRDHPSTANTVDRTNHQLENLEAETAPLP

Chain of cloned human δ opioid receptor (P41143 whole entry): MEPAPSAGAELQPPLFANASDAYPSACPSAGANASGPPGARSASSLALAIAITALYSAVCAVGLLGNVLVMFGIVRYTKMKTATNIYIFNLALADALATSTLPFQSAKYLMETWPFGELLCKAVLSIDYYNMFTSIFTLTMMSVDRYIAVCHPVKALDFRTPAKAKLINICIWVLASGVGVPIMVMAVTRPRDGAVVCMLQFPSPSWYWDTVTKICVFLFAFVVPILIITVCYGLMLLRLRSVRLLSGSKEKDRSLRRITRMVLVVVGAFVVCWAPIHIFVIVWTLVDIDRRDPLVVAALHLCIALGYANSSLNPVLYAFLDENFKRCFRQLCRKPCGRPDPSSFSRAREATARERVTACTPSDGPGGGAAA
Chain of cloned human κ opioid receptor (P41145 whole entry): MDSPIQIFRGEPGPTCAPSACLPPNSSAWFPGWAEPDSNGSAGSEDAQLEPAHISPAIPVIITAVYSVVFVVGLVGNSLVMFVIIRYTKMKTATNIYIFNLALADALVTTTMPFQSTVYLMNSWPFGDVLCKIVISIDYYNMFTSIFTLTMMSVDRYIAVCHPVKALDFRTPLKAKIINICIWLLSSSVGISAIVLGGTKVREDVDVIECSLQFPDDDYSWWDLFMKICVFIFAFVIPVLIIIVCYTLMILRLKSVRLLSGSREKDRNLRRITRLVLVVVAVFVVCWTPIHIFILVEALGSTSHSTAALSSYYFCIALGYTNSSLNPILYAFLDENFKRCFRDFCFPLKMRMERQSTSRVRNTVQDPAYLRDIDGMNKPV

SMILES | Kb [1] | times less potent than JDTic as a κ opioid receptor antagonist [2] | other results
CC(C)[C@@H](CN1CCC(C)(c2cccc(O)c2)CC1)NC(=O)[C@H]1Cc2ccc(O)cc2CN1 [Compound 4a, (3R)-7-Hydoxy-N-[(1S)-1-{[4-(3-hydroxyphenyl)-4-methylpiperidin-1-yl]methyl}-2-methylpropyl]-1,2,3,4-tetrahydroisoquinoline-3-carboxamide] | 927 ± 350 nM | 35 fold | –
CC(C)[C@@H](CN1CCC(C)(c2cccc(F)c2)CC1)NC(=O)[C@H]1Cc2ccc(O)cc2CN1 [Compound 4b, (3R)-N-[(1S)-1-{[4-(3-fluorophenyl)-4-methylpiperidin-1-yl]methyl}-2-methylpropyl]-7-hydroxy-1,2,3,4-tetrahydroisoquinoline-3-carboxamide] | – | 9 fold | functional profile in the [35S]GTPγS test (opioid receptors): pure opioid antagonist
CC[C@H](C)[C@@H](CN1CCC(C)(c2cccc(F)c2)CC1)NC(=O)[C@H]1Cc2ccc(O)cc2CN1 [Compound 4c, (3R)-N-[(1S,2S)-1-{[4-(3-Fluorophenyl)-4-methylpiperidin-1-yl]methyl}-2-methylbutyl]-7-hydroxy-1,2,3,4-tetrahydroisoquinoline-3-carboxamide] | 903 ± 200 nM | – | δ/κ [2]: 27,363; μ/κ [2]: 342
CC(C)[C@@H](CN1CCC(c2ccccc2)CC1)NC(=O)[C@H]1Cc2ccc(O)cc2CN1 [Compound 4e, (3R)-7-Hydroxy-N-{(1S)-2-methyl-1-[(4-phenylpiperidin-1-yl]methyl]propyl}-1,2,3,4-tetrahydroisoquinoline-3-carboxamide] | 281 ± 44 nM | 2.6 fold | Kb [2]: 0.051 ± 0.01 nM; times less potent than 3a as a κ antagonist ([2]; ratio of κ Ke values vs 3a): 2 fold
CC(C)[C@@H](CN1CCC(c2cccc(F)c2)CC1)NC(=O)[C@H]1Cc2ccc(O)cc2CN1 [Compound 4f, (3R)-N-[(1S)-1-{[4-(3-Fluorophenyl)piperidin-1-yl]methyl}-2-methylpropyl]-7-hydroxy-1,2,3,4-tetrahydroisoquinoline-3-carboxamide] | – | – | times more potent as a μ antagonist than 3b [3]: 4 fold
